# US20150064286A1, “PREPARATION AND COMPOSITIONS OF HIGHLY BIOAVAILABLE ZEROVALENT SULFUR AND USES THEREOF” (EMORY UNIVERSITY, priority 2011, published 2015)
# Columns and labels:
# superoxide formation = details: Shukla et al., BJU Int. 2009; cited from earlier work
# NADPH oxidase (NOX) = details: Sparatore et al. 2011; cited from earlier work
# cavernosal smooth muscle = details: Shukla et al., BJU Int. 2009; cited from earlier work
# [1] = system: p47^phox (a subunit of NOX); details: Shukla et al., BJU Int. 2009; cited from earlier work
# [2] = molecular target: phosphodiesterase type 5 (PDE5) (Homo sapiens, UniProt O76074); details: Sparatore et al. 2011; cited from earlier work
# [3] = Percentage bioactive sulfur contained in hydrogen sulfide prodrugs; type: physicochemical; details: sulfur capable of being converted into hydrogen sulfide in vivo
# [4] = Solubility in carbon disulfide; type: physicochemical
# Protocol: The solubility of the composition in carbon disulfide was obtained by adding 6 mL of carbon disulfide to 0.500 g of the final product and determining the weight of the residue.
# angiogenesis = details: NaHS in the drinking water, via increasing VEGF expression, Givvimani et al. 2011; cited from earlier work
# pregnant rat uterus = pregnant rat uterus in vitro, Sidhu et al. 2001; cited from earlier work
SMILES,% Bioactive sulfur (w/w) [3],also measured
CCCc1nn(C)c2c(=O)[nH]c(-c3cc(S(=O)(=O)N4CCN(CC(=O)Oc5ccc(-c6cc(=S)ss6)cc5)CC4)ccc3OCC)nc12 [ACS 6],3.5 % (w/w),inhibition of superoxide formation (superoxide formation): more than sildenafil citrate; effect of H2S released by ACS6 on NOX expression activity (NADPH oxidase (NOX)): inhibits; relaxation of cavernosal smooth muscle (cavernosal smooth muscle): equipotently; inhibition of expression of p47phox [1]: more than sildenafil citrate; effect of H2S released by ACS6 on PDE5 [2]: inhibits
C1COCCN1.COc1ccc(P(=S)(S)N2CCOCC2)cc1 (stereo not drawn) [GYY 4137],8.5 % (w/w),
c1ccc(CSSSCc2ccccc2)cc1 [Dibenzyl trisulfide],11.5 % (w/w),
O=C(CCC/C=C\C[C@@H]1[C@@H](CC[C@@H](O)CCc2ccccc2)[C@H](O)C[C@@H]1O)Oc1ccc(-c2cc(=S)ss2)cc1 [ACS 67],5.3 % (w/w),
NC(=S)c1ccc(O)cc1 [4-hydroxythiobenzamide],20.9 % (w/w),
C=CCSSCC=C [Diallyl disulfide],45.1 % (w/w),
"[S] [Pure alpha- or beta-elemental sulfur, elemental sulfur]",,Solubility in carbon disulfide [4]: completely soluble
O=C(Cc1ccccc1Nc1c(Cl)cccc1Cl)Oc1ccc(-c2cc(=S)ss2)cc1 [ACS 15],6.3 % (w/w),
COc1ccc2c(c1)c(CC(=O)Oc1ccc(-c3cc(=S)ss3)cc1)c(C)n2C(=O)c1ccc(Cl)cc1 [ATB 343],5.6 % (w/w),
C[S+]([O-])CCCCN=C=S (stereo not drawn) [Sulforaphane],18 % (w/w),
"S [NaHS, sodium hydrogen sulfide]",57 % (w/w),angiogenesis (angiogenesis): augmented angiogenesis; uterine spontaneous contractility (pregnant rat uterus): significant dose-dependent decreases
[Na+].[Na+].[S-2] [Na2S],41 % (w/w),
C=CCSSSCC=C [Diallyl trisulfide],53.9 % (w/w),
COc1ccc2cc(C(C)C(=O)Oc3ccc(C(N)=S)cc3)ccc2c1 (stereo not drawn) [ATB 346],8.8 % (w/w),
